Source: US5747466A, “3-deoxy-3-descladinose derivatives of erythromycins A and B” (Abbott Laboratories, priority 1996, dated 1998)

Tests used:
Assay in all cases: In vitro antibacterial activity (MIC), agar dilution
[1] = test system: STAPHYLOCOCCUS AUREUS A5177; type: cell-based; conditions: S. aureus A5177; BHI agar, 35-37 °C, 20-24 h
[2] = test system: STAPHYLOCOCCUS AUREUS A-5278; type: cell-based; conditions: S. aureus A-5278; BHI agar, 35-37 °C, 20-24 h
[3] = test system: STAPHYLOCOCCUS AUREUS CMX 642A; type: cell-based; conditions: S. aureus CMX 642A; BHI agar, 35-37 °C, 20-24 h
[4] = test system: STAPHYLOCOCCUS AUREUS NCTC10649M; type: cell-based; conditions: S. aureus NCTC10649M; BHI agar, 35-37 °C, 20-24 h
[5] = test system: STAPHYLOCOCCUS AUREUS CMX 553; type: cell-based; conditions: S. aureus CMX 553; BHI agar, 35-37 °C, 20-24 h
[6] = test system: STAPHYLOCOCCUS EPIDERMIDIS 3519; type: cell-based; conditions: S. epidermidis 3519; BHI agar, 35-37 °C, 20-24 h
EN[…] ATCC 8043 = type: cell-based, Enterococcus faecium; conditions: E. faecium ATCC 8043; BHI agar, 35-37 °C, 20-24 h
Method: (§1) Representative compounds of the present invention were assayed in vitro for antibacterial activity as follows: Twelve petri dishes containing successive aqueous dilutions of the test compound mixed with 10 mL of sterilized Brain Heart Infusion (BHI) agar (Difco 0418-01-5) were prepared. Each plate was inoculated with 1:100 (or 1:10 for slow-growing strains, such as Micrococcus and Streptococcus) dilutions of up to 32 different microorganisms, using a Steers replicator block. The inoculated plates were incubated at 35°-37° C. for 20 to 24 hours. In addition, a control plate, using BHI agar containing no test compound, was prepared and incubated at the beginning and end of each test.
(§2) An additional plate containing a compound having known susceptibility patterns for the organisms being tested and belonging to the same antibiotic class as the test compound was also prepared and incubated as a further control, as well as to provide test-to-test comparability. Erythromycin A was used for this purpose.
(§3) After incubation, each plate was examined. The minimum inhibitory concentration (MIC) was defined as the lowest concentration of drug yielding no growth, a slight haze, or sparsely isolated colonies on the inoculum spot as compared to the growth control.

STR[…] 508 = type: cell-based, Streptococcus agalactiae; conditions: S. agalactiae CMX 508; BHI agar, 35-37 °C, 20-24 h
Method: as §1, §2, §3

[7] = test system: STREPTOCOCCUS PYOGENES PIU 2548; type: cell-based; conditions: S. pyogenes PIU 2548; BHI agar, 35-37 °C, 20-24 h
M[…] ATCC 4698 = type: cell-based, Micrococcus luteus; conditions: M. luteus ATCC 4698; BHI agar, 35-37 °C, 20-24 h
Method: as §1, §2, §3

M[…] ATCC 9341 = type: cell-based, Micrococcus luteus; conditions: M. luteus ATCC 9341; BHI agar, 35-37 °C, 20-24 h
Method: as §1, §2, §3

ESCHERICHIA COLI JUHL = type: cell-based; conditions: E. coli JUHL; BHI agar, 35-37 °C, 20-24 h
ESCHERICHIA COLI SS = type: cell-based; conditions: E. coli SS; BHI agar, 35-37 °C, 20-24 h
ESCHERICHIA COLI DC-2 = type: cell-based; conditions: E. coli DC-2; BHI agar, 35-37 °C, 20-24 h
ESCHERICHIA COLI H560 = type: cell-based; conditions: E. coli H560; BHI agar, 35-37 °C, 20-24 h
ESCHERICHIA COLI KNK 437 = type: cell-based; conditions: E. coli KNK 437; BHI agar, 35-37 °C, 20-24 h
[8] = test system: KLEBSIELLA PNEUMONIAE ATCC 8045; type: cell-based; conditions: K. pneumoniae ATCC 8045; BHI agar, 35-37 °C, 20-24 h
[9] = test system: PROVIDENCIA STUARTII CMX 640; type: cell-based; conditions: P. stuartii CMX 640; BHI agar, 35-37 °C, 20-24 h
[10] = test system: PSEUDOMONAS AERUGINOSA BMH10; type: cell-based; conditions: P. aeruginosa BMH10; BHI agar, 35-37 °C, 20-24 h
[11] = test system: PSEUDOMONAS AERUGINOSA 5007; type: cell-based; conditions: P. aeruginosa 5007; BHI agar, 35-37 °C, 20-24 h
[12] = test system: PSEUDOMONAS AERUGINOSA K799/WT; type: cell-based; conditions: P. aeruginosa K799/WT; BHI agar, 35-37 °C, 20-24 h
[13] = test system: PSEUDOMONAS AERUGINOSA K799/61; type: cell-based; conditions: P. aeruginosa K799/61; BHI agar, 35-37 °C, 20-24 h
[14] = test system: ACINETOBACTER CALCOACETICUS CMX 669; type: cell-based; conditions: A. calcoaceticus CMX 669; BHI agar, 35-37 °C, 20-24 h
[15] = test system: PSEUDOMONAS AERUGINOSA DPHD-5263; type: cell-based; conditions: P. aeruginosa DPHD-5263; BHI agar, 35-37 °C, 20-24 h
[16] = test system: PSEUDOMONAS AERUGINOSA DPHD-2862; type: cell-based; conditions: P. aeruginosa DPHD-2862; BHI agar, 35-37 °C, 20-24 h
[17] = test system: MYCOBACTERIUM SMEGMATIS ATCC 114; type: cell-based; conditions: M. smegmatis ATCC 114; BHI agar, 35-37 °C, 20-24 h

CC[C@H]1OC(=O)[C@H](C)C[C@H](C)[C@@H](O[C@@H]2O[C@H](C)C[C@H](N(C)C)[C@H]2O)[C@](C)(OC)C[C@@H](C)C(=O)[C@H](C)[C@@H](O)[C@]1(C)O [Ex. 1]
minimum inhibitory concentration (MIC) [1]: 25
minimum inhibitory concentration (MIC) [2]: > 100
minimum inhibitory concentration (MIC) [3]: 25
minimum inhibitory concentration (MIC) [4]: 6.2
minimum inhibitory concentration (MIC) [5]: 25
minimum inhibitory concentration (MIC) [6]: 50
minimum inhibitory concentration (MIC) (EN[…] ATCC 8043): 25
minimum inhibitory concentration (MIC) (STR[…] 508): 3.1
minimum inhibitory concentration (MIC) [7]: 3.1
minimum inhibitory concentration (MIC) (M[…] ATCC 4698): 6.2
minimum inhibitory concentration (MIC) (M[…] ATCC 9341): 3.1
minimum inhibitory concentration (MIC) (ESCHERICHIA COLI JUHL): > 100
minimum inhibitory concentration (MIC) (ESCHERICHIA COLI SS): 0.78
minimum inhibitory concentration (MIC) (ESCHERICHIA COLI DC-2): > 100
minimum inhibitory concentration (MIC) (ESCHERICHIA COLI H560): > 100
minimum inhibitory concentration (MIC) (ESCHERICHIA COLI KNK 437): > 100
minimum inhibitory concentration (MIC) [8]: > 100
minimum inhibitory concentration (MIC) [9]: > 100
minimum inhibitory concentration (MIC) [10]: > 100
minimum inhibitory concentration (MIC) [11]: > 100
minimum inhibitory concentration (MIC) [12]: > 100
minimum inhibitory concentration (MIC) [13]: > 100
minimum inhibitory concentration (MIC) [14]: > 100
minimum inhibitory concentration (MIC) [15]: > 100
minimum inhibitory concentration (MIC) [16]: > 100
minimum inhibitory concentration (MIC) [17]: 100

CC[C@H]1OC(=O)[C@H](C)C[C@H](C)[C@@H](O[C@@H]2O[C@H](C)C[C@H](N(C)C)[C@H]2O)[C@](C)(OC)C[C@@H](C)C(=NO)[C@H](C)[C@@H](O)[C@]1(C)O [Ex. 2]
minimum inhibitory concentration (MIC) [1]: 25
minimum inhibitory concentration (MIC) [2]: > 100
minimum inhibitory concentration (MIC) [3]: 12.5
minimum inhibitory concentration (MIC) [4]: 12.5
minimum inhibitory concentration (MIC) [5]: 12.5
minimum inhibitory concentration (MIC) [6]: 12.5
minimum inhibitory concentration (MIC) (EN[…] ATCC 8043): 3.1
minimum inhibitory concentration (MIC) (STR[…] 508): 0.78
minimum inhibitory concentration (MIC) [7]: 0.56
minimum inhibitory concentration (MIC) (M[…] ATCC 4698): 3.1
minimum inhibitory concentration (MIC) (M[…] ATCC 9341): 1.56
minimum inhibitory concentration (MIC) (ESCHERICHIA COLI JUHL): > 100
minimum inhibitory concentration (MIC) (ESCHERICHIA COLI SS): 0.78
minimum inhibitory concentration (MIC) (ESCHERICHIA COLI DC-2): > 100
minimum inhibitory concentration (MIC) (ESCHERICHIA COLI H560): > 100
minimum inhibitory concentration (MIC) (ESCHERICHIA COLI KNK 437): > 100
minimum inhibitory concentration (MIC) [8]: > 100
minimum inhibitory concentration (MIC) [9]: > 100
minimum inhibitory concentration (MIC) [10]: > 100
minimum inhibitory concentration (MIC) [11]: > 100
minimum inhibitory concentration (MIC) [12]: > 100
minimum inhibitory concentration (MIC) [13]: > 100
minimum inhibitory concentration (MIC) [14]: > 100
minimum inhibitory concentration (MIC) [15]: > 100
minimum inhibitory concentration (MIC) [16]: > 100
minimum inhibitory concentration (MIC) [17]: 6.2

CC[C@H]1OC(=O)[C@H](C)C[C@H](C)[C@@H](O[C@@H]2O[C@H](C)C[C@H](N(C)C)[C@H]2O)[C@](C)(OC)C[C@@H](C)C(=O)[C@H](C)[C@H]2OC(=O)O[C@@]21C [Ex. 3]
minimum inhibitory concentration (MIC) [1]: 3.1
minimum inhibitory concentration (MIC) [2]: > 100
minimum inhibitory concentration (MIC) [3]: 3.1
minimum inhibitory concentration (MIC) [4]: 6.2
minimum inhibitory concentration (MIC) [5]: 3.1
minimum inhibitory concentration (MIC) [6]: 6.2
minimum inhibitory concentration (MIC) (EN[…] ATCC 8043): 0.78
minimum inhibitory concentration (MIC) (STR[…] 508): 0.2
minimum inhibitory concentration (MIC) [7]: 0.78
minimum inhibitory concentration (MIC) (M[…] ATCC 4698): 0.78
minimum inhibitory concentration (MIC) (M[…] ATCC 9341): 0.78
minimum inhibitory concentration (MIC) (ESCHERICHIA COLI JUHL): > 100
minimum inhibitory concentration (MIC) (ESCHERICHIA COLI SS): 0.78
minimum inhibitory concentration (MIC) (ESCHERICHIA COLI DC-2): > 100
minimum inhibitory concentration (MIC) (ESCHERICHIA COLI H560): > 100
minimum inhibitory concentration (MIC) (ESCHERICHIA COLI KNK 437): > 100
minimum inhibitory concentration (MIC) [8]: > 100
minimum inhibitory concentration (MIC) [9]: > 100
minimum inhibitory concentration (MIC) [10]: > 100
minimum inhibitory concentration (MIC) [11]: > 100
minimum inhibitory concentration (MIC) [12]: > 100
minimum inhibitory concentration (MIC) [13]: > 100
minimum inhibitory concentration (MIC) [14]: > 100
minimum inhibitory concentration (MIC) [15]: > 100
minimum inhibitory concentration (MIC) [16]: > 100
minimum inhibitory concentration (MIC) [17]: 3.1
